Test results published in patent publication US10888575B2, “Combination comprising zidovudine and a carbapenem” (HELPERBY THERAPEUTICS LIMITED, priority 2016, dated 2021).
Read-outs that look alike come from different tables or passages of the source.

Legend:
Assay type in all cases: cell-based
[1] = system: log phase NDM-1 K. pneumoniae subsp. pneumoniae (BAA2470); experiment: time-kill, zidovudine, meropenem and CMS
Procedure: • 1. Bacterial strain used: BAA2470 strain of K. pneumoniae subsp. pneumoniae • 2. Growth of bacteria: Log phase growth of BAA2470 was carried out according to known methods in the art, e.g. SOP R-005-00 Log Phase Growth of Bacteria. • 3. Compound preparation: zidovudine, mereopenem and colistimethate sodium were obtained from commercial sources (e.g. Sigma-Aldrich). • 4. The overnight culture was diluted with nutrient broth (Oxoid) to 10^7 CFU/ml and 280 μl and 290 μl of the culture was added to each combination well and drug respectively, to make the final concentration of 300 μl. • 5. Incubation of the compounds with the bacterial suspension was carried out for 24 hours. At 0, 2, 4, 7 and 24 hours, CFU counts were performed to measure the kill effects of the drug combination.

[2] = system: log phase NDM-1 Klebsiella pneumoniae subsp. pneumoniae (BAA2472); experiment: chequerboard method, zidovudine and meropenem; design: scale not given here
Procedure: The chequerboard method used in Example 1 followed the protocols detailed in Antimicrob Chemo (2013) 68, 374-384.
Log phase growth of NDM-1 Klebsiella pneumoniae subsp. pneumoniae was carried out as described in the art. Zidovudine and meropenem were obtained from commercially available sources. The effects of the combination of the present invention were examined by calculating the fractional inhibitory concentration index (FICI) of each combination, as follows:
(MIC of drug A, tested in combination)/(MIC of drug A, tested alone)+(MIC of drug B, tested in combination)/(MIC of drug B, tested alone).
The interaction of the combination was defined as showing synergy if the FICI was ≤0.5, no interaction if the FICI was >0.5 but <4.0 and antagonism if the FICI was >4.0.

[3] = system: log phase NDM-1 Escherichia coli (BAA2469); experiment: time-kill, zidovudine and meropenem; settings: 24 hours
Procedure: (§1) As described hereinabove, time-kill methods are another accepted test for ascertaining the presence or absence of synergy, and involve comparing the dynamic effect of a drug combination with each drug alone when assessing the effect on bacterial log or stationary-growth over time.
(§2) • 1. Bacterial strain used: BAA2471 or BAA2469 strain of Escherichia coli • 2. Growth of bacteria: Log phase growth of BAA2471 or BAA2469 was carried out according to known methods in the art, e.g. SOP R-005-00 Log Phase Growth of Bacteria. • 3. Compound preparation: zidovudine and mereopenem were both obtained from commercial sources (e.g. Sigma-Aldrich). • 4. The overnight culture was diluted with nutrient broth (Oxoid) to 10^7 CFU/ml and 280 μl and 290 μl of the culture was added to each combination well and drug respectively, to make the final concentration of 300 μl. • 5. Incubation of the compounds with the bacterial suspension was carried out for 24 hours. At 0, 2, 4, 7 and 24 hours, CFU counts were performed to measure the kill effects of the drug combination. Results and Discussion

[4] = system: log phase NDM-1 Escherichia coli (BAA2471); experiment: time-kill, zidovudine and meropenem; settings: 24 hours
Procedure: as §1, §2

[5] = system: log phase NDM-1 Klebsiella pneumoniae (BAA2470); experiment: chequerboard method, zidovudine, meropenem and colistimethate sodium; design: chequerboard reading: scale not given here
Procedure: The chequerboard method used in Example 1 was followed, according to the protocols detailed in Antimicrob Chemo (2013) 68, 374-384. The bacterial strain of NDM-1 Klebsiella pneumoniae was BAA2470. Log phase growth of BAA2470 was carried out as described in the art. Zidovudine, meropenem and colistimethate sodium were obtained from commercially available sources. The effects of the triple combination of the present invention were examined by calculating the MIC for each drug alone and in combination.

[6] = zidovudine added at 0.25 μg/ml to the meropenem and CMS combination

Compound: C[C@@H](O)[C@H]1C(=O)N2C(C(=O)O)=C(S[C@@H]3CN[C@H](C(=O)N(C)C)C3)[C@H](C)[C@H]12 [meropenem]
- kill of the bacterium ([1]; meropenem alone 64 μg/ml, at 4 hours, followed by a regrowth): about 3 logs
- chequerboard reading ([2]; zidovudine 0, meropenem 0.25): 0.40
- chequerboard reading ([2]; zidovudine 0, meropenem 0.5): 0.41
- chequerboard reading ([2]; zidovudine 0, meropenem 1): 0.45
- chequerboard reading ([2]; zidovudine 0, meropenem 2): 0.35
- chequerboard reading ([2]; zidovudine 0, meropenem 4): 0.34
- chequerboard reading ([2]; zidovudine 0, meropenem 8): 0.44
- chequerboard reading ([2]; zidovudine 0, meropenem 16): 0.44
- chequerboard reading ([2]; zidovudine 0, meropenem 32): 0.25
- chequerboard reading ([2]; zidovudine 0, meropenem 64): 0.21
- chequerboard reading ([2]; zidovudine 0, meropenem 128): 0.20
- chequerboard reading ([2]; zidovudine 0, meropenem 256): 0.05
- time-kill effect ([3]; meropenem alone 8 mg/L): little or no effect
- time-kill effect ([4]; meropenem alone 256 mg/L): little or no effect
- MIC ([5]; Klebsiella pneumoniae, BAA2470): 256 µg/mL
- MIC ([5]; Klebsiella pneumoniae, BAA2470, zidovudine added at 0.5 μg/ml to the meropenem and CMS combination, read-out: MIC): 64 µg/mL
- MIC ([5]; Klebsiella pneumoniae, BAA2470, zidovudine added at 1 μg/ml to the meropenem and CMS combination, read-out: MIC): 16 µg/mL
- chequerboard reading ([5]; meropenem 8, CMS 0, zidovudine 0 μg/ml): 0.69
- chequerboard reading ([5]; meropenem 16, CMS 0, zidovudine 0 μg/ml): 0.70
- chequerboard reading ([5]; meropenem 32, CMS 0, zidovudine 0 μg/ml): 0.63
- chequerboard reading ([5]; meropenem 64, CMS 0, zidovudine 0 μg/ml): 0.55
- chequerboard reading ([5]; meropenem 128, CMS 0, zidovudine 0 μg/ml): 0.36
- chequerboard reading ([5]; meropenem 256, CMS 0, zidovudine 0 μg/ml): 0.05
- chequerboard reading ([5]; meropenem 512, CMS 0, zidovudine 0 μg/ml): 0.05
- MIC [5, 6]: remained the same

Compound: Cc1cn([C@H]2C[C@H](N=[N+]=[N-])[C@@H](CO)O2)c(=O)[nH]c1=O [zidovudine, 1-[(2R,4S, 5S)-4-Azido-5-(hydroxymethyl)oxolan-2-yl]-5-methylpyrimidine-2,4-dione]
- kill of the bacterium ([1]; zidovudine alone 16 μg/ml, at 2 hours, then growth occurred): one
- chequerboard reading ([2]; zidovudine 0.5, meropenem 0): 0.16
- chequerboard reading ([2]; zidovudine 1, meropenem 0): 0.22
- chequerboard reading ([2]; zidovudine 2, meropenem 0): 0.10
- chequerboard reading ([2]; zidovudine 4, meropenem 0): 0.23
- chequerboard reading ([2]; zidovudine 8, meropenem 0): 0.23
- chequerboard reading ([2]; zidovudine 16, meropenem 0): 0.04
- chequerboard reading ([2]; zidovudine 32, meropenem 0): 0.26
- time-kill effect ([3]; zidovudine alone 16 mg/L): little or no effect
- time-kill effect ([4]; zidovudine alone 32 mg/L): little or no effect
- chequerboard reading ([5]; meropenem 0, CMS 0, zidovudine 0.25 μg/ml): 0.31
- chequerboard reading ([5]; meropenem 0, CMS 0, zidovudine 0.50 μg/ml): 0.17
- chequerboard reading ([5]; meropenem 0, CMS 0, zidovudine 1 μg/ml): 0.11
- chequerboard reading ([5]; meropenem 0, CMS 0, zidovudine 2 μg/ml): 0.08

Compound: colistimethate sodium
- time-kill effect ([1]; CMS alone 4 ug/ml): no effect
- chequerboard reading ([5]; meropenem 0, CMS 0.031, zidovudine 0 μg/ml): 0.66
- chequerboard reading ([5]; meropenem 0, CMS 0.063, zidovudine 0 μg/ml): 0.61
- chequerboard reading ([5]; meropenem 0, CMS 0.125, zidovudine 0 μg/ml): 0.58
- chequerboard reading ([5]; meropenem 0, CMS 0.25, zidovudine 0 μg/ml): 0.50
- chequerboard reading ([5]; meropenem 0, CMS 0.5, zidovudine 0 μg/ml): 0.51
- chequerboard reading ([5]; meropenem 0, CMS 1, zidovudine 0 μg/ml): 0.47
- chequerboard reading ([5]; meropenem 0, CMS 2, zidovudine 0 μg/ml): 0.46
- chequerboard reading ([5]; meropenem 0, CMS 4, zidovudine 0 μg/ml): 0.42
- chequerboard reading ([5]; meropenem 0, CMS 8, zidovudine 0 μg/ml): 0.42
- chequerboard reading ([5]; meropenem 0, CMS 16, zidovudine 0 μg/ml): 0.23
- chequerboard reading ([5]; meropenem 0, CMS 32, zidovudine 0 μg/ml): 0.05
- MIC ([5]; without zidovudine): 32 µg/mL
- MIC [5, 6]: 8 µg/mL
- MIC ([5]; zidovudine added at 0.5 μg/ml to the meropenem and CMS combination): 0.5 µg/mL
- MIC ([5]; zidovudine added at 1 μg/ml to the meropenem and CMS combination): 0.25 µg/mL
